According to patent publication US10035980B2, “Extracellular matrix derived from stem cells and methods for production” (FLORIDA STATE UNIVERSITY RESEARCH FOUNDATION, INC., priority 2013, dated 2018):

Columns and labels:
Format in all cases: cell-based, Murine
ESC-derived NPCs [1] = assay: Neural marker expression of reseeded NPCs by flow cytometry; settings: for GFAP expression upon BMS 493 treatment: FIG. 17D
Description: For various ECM scaffolds, 1×10^6 dissociated NPCs or intact NPC aggregates derived from ESCs were reseeded on the ECM scaffolds and cultivated for 3-4 days in DMEM-F12 containing 2% B27. The cells were analyzed for colonization on the scaffolds, proliferation, and viability. To study the effect of retinoid signaling, BMS 493 (1 μM, Santa Cruz), a pan-retinoic acid receptor (RAR) antagonist, was supplemented in the media for some experiments. After 3 days of culture in suspension, the NPC-ECM constructs were replated in 24-well plates coated with Geltrex™, the LDEV-Free Reduced Growth Factor Basement Membrane Matrix (Life Technologies), for another 3 days. The differentiation was assessed by immunocytochemistry for neural markers. […] The samples were then blocked and incubated with mouse or rabbit primary antibody against: Nestin (Sigma) or Musashi-1 (Abcam) for neural progenitors, β-tubulin III (Millipore) for neurons, or GFAP (Millipore) for astrocytes. After washing, the cells were incubated with the corresponding secondary antibody: Alexa Fluor® 488 goat anti-Mouse IgG1 for GFAP and β-tubulin III, or Alexa Fluor® 488 goat anti-Rabbit IgG for Nestin and Musashi-1 (Molecular Probes). The samples were mounted with 4′,6-Diamidino-2-Phenylindole (DAPI) and visualized using a fluorescent microscope. To quantify the levels of neural marker expression, the cells on ECM scaffolds were harvested by trypsinization and analyzed by flow cytometry. Briefly, 1×10^6 cells per sample were fixed with 4% PFA and washed with staining buffer (2% FBS in PBS). […] Alexa Fluor® 488 goat anti-Mouse IgG1 (for GFAP and β-tubulin III) or Alexa Fluor® 488 goat anti-Rabbit IgG (for Nestin and Musashi-1). The cells were acquired with BD FACSCanto™ II flow cytometer (Becton Dickinson) and analyzed against isotype controls using FlowJo software.

ESCs [2] = assay: ESC reseeding and proliferation on decellularized ECMs (specific growth rate)
Description: (§1) To assess cell proliferation, ESCs of 0.5×10^5 per mL were seeded on the decelluarized ECMs and cultivated for 4 days in expansion media without LIF (FIG. 1). […] Cell numbers were determined at days 0, 2, and 4 using a hemocytometer after trypsin/EDTA dissociation. The specific growth rates were calculated as the slope of the proliferation curve. Cell viability was determined by the incubation with 5 mg/mL 3-(4,5-Dimethylthiazol-2-yl)-2,5-diphenyltetrazolium bromide (MTT, Sigma) solution. Afterwards, the formazan crystals were hydrolyzed with dimethyl sulfoxide (Sigma) and measured at 500 nm using a microplate reader. For the test of RA signaling, soluble RA (1 μM) or BMS 493 (1 μM, Santa Cruz), a pan-RAR antagonist, was supplemented in the media. To assess the differentiation ability after culturing on the decellularized ECMs, ESCs were replated on 0.1% gelatin-coated 12-well plates and cultured for 7 days in differentiation medium without any inducing growth factors. The cells were evaluated for the expression of Nestin (ectoderm), β-tubulin III (ectoderm), α-actinin (mesoderm), and FOXA2 (endoderm).

ESCs [3] = assay: Three-germ layer differentiation of ESCs grown on decellularized ECM scaffolds
Description: (§2) To detect differentiation markers, the cells were incubated with mouse or rabbit primary antibody against: Nestin (Millipore), β-tubulin III (Sigma), α-actinin (sarcomeric, Sigma), or FOXA2 (Millipore). After washing, the cells were incubated with the corresponding secondary antibody: ALEXA FLUOR 488 goat anti-Mouse IgG1 (for Nestin and α-actinin) or IgG2b (for β-Tubulin III), or ALEXA FLUOR 488 goat anti-Rabbit IgG (for FOXA2). The localization of RAR-α was also assessed using goat anti-Rabbit RAR-α antibody (Abcam) detected by ALEXA FLUOR 594 donkey anti-Goat IgG.
as §1
For flow cytometry, 1×10^6 cells per sample were fixed with 4% PFA and washed with staining buffer (2% FBS in PBS). The cells were stained with DNA-intercalating dye ethidium monoazide bromide (EMA, Sigma) and permeabilized with 100% cold methanol. The samples were incubated with primary antibodies against Oct-4 (Millipore), Nestin, β-tubulin III, α-actinin, or FOXA2 followed by the corresponding secondary antibody: ALEXA FLUOR 488 goat anti-Mouse IgG1 (for Oct-4, Nestin, and α-actinin) or IgG2b (for β-tubulin III), or ALEXA FLUOR 488 goat anti-Rabbit IgG (for FOXA2). The cells were acquired with BD FACSCANTO II flow cytometer (Becton Dickinson) and analyzed against isotype controls using FlowJo software.

ESCs [4] = assay: Oct-4 expression of reseeded ESCs by flow cytometry
Description: as §1
For flow cytometry, 1×10^6 cells per sample were fixed with 4% PFA and washed with staining buffer (2% FBS in PBS). […] The cells were acquired with BD FACSCANTO II flow cytometer (Becton Dickinson) and analyzed against isotype controls using FlowJo software.

ESC-derived NPCs [5] = assay: NPC proliferation assays on ECM scaffolds (fold expansion, MTT); settings: NPCs on DE-EC and DE-NG scaffolds, BMS 493 1 μM, FIG. 17A
Description: For various ECM scaffolds, 1×10^6 dissociated NPCs or intact NPC aggregates derived from ESCs were reseeded on the ECM scaffolds and cultivated for 3-4 days in DMEM-F12 containing 2% B27. The cells were analyzed for colonization on the scaffolds, proliferation, and viability. To study the effect of retinoid signaling, BMS 493 (1 μM, Santa Cruz), a pan-retinoic acid receptor (RAR) antagonist, was supplemented in the media for some experiments.
Cell proliferation assays: Cell numbers were determined at days 3 using a hemocytometer after trypsin/EDTA dissociation for fold expansion. Cell proliferation kinetics was also determined by incubating with 5 mg/mL 3-(4,5-Dimethylthiazol-2-yl)-2,5-diphenyltetrazolium bromide (MTT, Sigma) solution. Afterwards, the formazan crystals were hydrolyzed with dimethyl sulfoxide (Sigma) and measured at 500 nm using a microplate reader.

RAR-α = target: T1, RAR-α (Mus musculus, UniProt P11416); assay: RAR-α localization in ESCs by immunocytochemistry; settings: ESCs on DE-RA10 without soluble RA; ESC monolayers exposed to soluble RA, FIG. 8A
T1 construct: Localization of RAR-α in ESC monolayers with or without RA treatment; endogenous in cells; host or cells: embryonic stem cells (monolayers, or reseeded on DE-RA10 scaffolds)
T1 sequence (P11416 1-462): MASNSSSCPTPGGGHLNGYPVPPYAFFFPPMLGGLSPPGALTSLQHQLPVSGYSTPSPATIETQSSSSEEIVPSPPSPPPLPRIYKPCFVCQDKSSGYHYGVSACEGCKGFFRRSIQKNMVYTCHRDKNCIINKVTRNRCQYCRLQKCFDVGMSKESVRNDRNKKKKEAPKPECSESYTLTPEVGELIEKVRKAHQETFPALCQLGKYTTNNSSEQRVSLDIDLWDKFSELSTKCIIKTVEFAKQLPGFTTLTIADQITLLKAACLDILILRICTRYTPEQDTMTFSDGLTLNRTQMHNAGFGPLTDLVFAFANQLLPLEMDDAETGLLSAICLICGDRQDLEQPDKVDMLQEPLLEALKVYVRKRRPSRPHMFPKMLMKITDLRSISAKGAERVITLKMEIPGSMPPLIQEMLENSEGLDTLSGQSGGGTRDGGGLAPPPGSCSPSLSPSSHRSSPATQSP
Description: as §2
as §1, with “For the test of RA signaling, soluble RA (1 μM) or BMS 493 (1 μM, Santa Cruz), a pan-RAR antagonist, was supplemented in the media. To assess the differentiation ability after culturing on the decellularized ECMs, ESCs were replated on 0.1% gelatin-coated 12-well plates and cultured for 7 days in differentiation medium without any inducing growth factors.” left out

[6] = BMS 493 (1 μM) added in the DE-RA10 culture, FIG. 8C
[7] = BMS 493 treated vs untreated, ESCs on DE-RA10, FIG. 8E
[8] = FIG. 8E: ESCs on DE-RA10 with or without BMS 493 (1 μM)
[9] = FIG. 8B: cells in DE-RA10 vs cells in DE-SE10 treated with soluble RA (1 μM)
[10] = FIG. 8D: ESCs on DE-RA10 vs ESCs treated by soluble RA

Structure (SMILES): CC1(C)CC=C(C#Cc2ccccc2)c2cc(/C=C/c3ccc(C(=O)O)cc3)ccc21 [BMS 493]
- GFAP expression upon BMS 493 treatment (ESC-derived NPCs [1]; DE-EC condition): increased GFAP expression
- neural marker expression upon BMS 493 (ESC-derived NPCs [1]; NPCs, DE-AC group): no changes in neural marker expression
- Nestin expression upon BMS 493 treatment (ESC-derived NPCs [1]; NPCs, DE-EC and DE-NC conditions, FIG. 17B): increased
- β-Tubulin III expression upon BMS 493 treatment (ESC-derived NPCs [1]; cells from DE-NC scaffold, FIG. 17C): significant decrease
- GFAP expression upon BMS 493 treatment (ESC-derived NPCs [1]; cells from DE-NC scaffold): significant decrease
- ESC proliferation (ESCs [2]; [6]): reduced ESC proliferation
- Nestin expression (ESCs [3]; [7]): increased
- β-tubulin III expression (ESCs [3]; [7]): similar
- expression of FOXA2 (ESCs [3]; [8]): 24%
- expression of α-actinin (ESCs [3]; [8]): 3%
- Oct-4 expression (ESCs [4]; [6]): not Oct-4 expression
- cell proliferation after BMS 493 treatment (ESC-derived NPCs [5]): reduced the cell proliferation

Structure (SMILES): CC1=C(/C=C/C(C)=C/C=C/C(C)=C/C(=O)O)C(C)(C)CCC1 [soluble RA, all-trans retinoic acid]
- specific growth rate (ESCs [2]; [9]): -0.013 h⁻¹
- localization of RAR-α (RAR-α): translocation of RAR-α from cytoplasm to cell nucleus was confirmed
- Nestin expression (ESCs [3]; [10]): 32%
- β-tubulin III expression (ESCs [3]; [10]): 25%
- Oct-4 expression (ESCs [4]; [9]): 10.1%
